Source: patent publication US6683089B2, “N-allyoxyethyl-1,2,3,4,5,6-hexahydro-2,6-methano-3-benzazocine-10-ols” (Boehringer Ingelheim Pharma GmbH & Co. KG, priority 2002, dated 2004)
Counter-ions that a name gives are not always drawn.

melting point [°C]	Compound
239	C=CCO[C@@H](C)CN1CC[C@@]2(C)c3cccc(O)c3C[C@@H]1C2(C)C (as salt: hydrochloride)
205	C/C=C/CO[C@@H](C)CN1CC[C@@]2(C)c3cccc(O)c3C[C@@H]1C2(C)C (as salt: hydrochloride)
240	C=C(C)CO[C@@H](C)CN1CC[C@@]2(C)c3cccc(O)c3C[C@@H]1C2(C)C (as salt: hydrochloride)
